Assays:
Assay in all cases: biochemical
Parameters in all cases: Upstate KinaseProfiler in vitro kinase activity assay, per cent of DMSO control
Conditions in all cases: read-out: Activity (% of Control)
ALK(h) = ALK(h) (Homo sapiens, UniProt Q9UM73)
How it was run: (§1)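 Profiling done with Upstate KinaseProfiler service across 100 kinases, resveratrol tested at 20 μM; activity expressed relative to control.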

CHK1(h) = molecular target: T1, CHK1(h) (Homo sapiens, UniProt O14757)
T1 construct: gene CHEK1
How it was run: as §1

Fgr(h) = Fgr(h) (Homo sapiens, UniProt P09769)
How it was run: as §1

Fms(h) = molecular target: T2, Fms(h) (Homo sapiens, UniProt P07333)
T2 construct: gene CSF1R
How it was run: as §1

GSK3ß(h) = molecular target: T3, GSK3ß(h) (Homo sapiens, UniProt P49841)
T3 construct: gene GSK3B
How it was run: as §1

IR(h) = molecular target: T4, IR(h) (Homo sapiens, UniProt P06213)
T4 construct: gene INSR
How it was run: as §1

IRAK1(h) = IRAK1(h) (Homo sapiens, UniProt P51617)
How it was run: as §1

Met(h) = Met(h) (Homo sapiens, UniProt P08581)
How it was run: as §1

NEK2(h) = NEK2(h) (Homo sapiens, UniProt P51955)
How it was run: as §1

NEK6(h) = NEK6(h) (Homo sapiens, UniProt Q9HC98)
How it was run: as §1

NEK7(h) = NEK7(h) (Homo sapiens, UniProt Q8TDX7)
How it was run: as §1

PAK4(h) = PAK4(h) (Homo sapiens, UniProt O96013)
How it was run: as §1

PKBγ(h) = molecular target: T5, PKBγ(h) (Homo sapiens, UniProt Q9Y243)
T5 construct: gene AKT3
How it was run: as §1

PKD2(h) = molecular target: T6, PKD2(h) (Homo sapiens, UniProt Q9BZL6)
T6 construct: gene PRKD2
How it was run: as §1

SAPK2b(h) = molecular target: T7, SAPK2b(h) (Homo sapiens, UniProt Q15759)
T7 construct: gene MAPK11
How it was run: as §1

SIK(h) = molecular target: T8, SIK(h) (Homo sapiens, UniProt P57059)
T8 construct: gene SIK1
How it was run: as §1

TAK1(h) = molecular target: T9, TAK1(h) (Homo sapiens, UniProt O43318)
T9 construct: gene MAP3K7
How it was run: as §1

ZAP-70(h) = molecular target: T10, ZAP-70(h) (Homo sapiens, UniProt P43403)
T10 construct: gene ZAP70
How it was run: as §1

T7 sequence (Q15759 whole entry): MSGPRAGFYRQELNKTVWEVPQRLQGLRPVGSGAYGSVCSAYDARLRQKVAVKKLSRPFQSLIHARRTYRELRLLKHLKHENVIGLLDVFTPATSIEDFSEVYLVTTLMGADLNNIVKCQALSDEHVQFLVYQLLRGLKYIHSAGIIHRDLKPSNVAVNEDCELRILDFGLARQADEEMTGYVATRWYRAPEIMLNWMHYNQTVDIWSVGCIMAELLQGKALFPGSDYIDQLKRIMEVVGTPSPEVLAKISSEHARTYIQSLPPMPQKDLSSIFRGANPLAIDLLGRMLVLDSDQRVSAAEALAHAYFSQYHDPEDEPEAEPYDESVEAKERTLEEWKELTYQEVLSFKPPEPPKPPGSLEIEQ
T8 sequence (P57059 whole entry): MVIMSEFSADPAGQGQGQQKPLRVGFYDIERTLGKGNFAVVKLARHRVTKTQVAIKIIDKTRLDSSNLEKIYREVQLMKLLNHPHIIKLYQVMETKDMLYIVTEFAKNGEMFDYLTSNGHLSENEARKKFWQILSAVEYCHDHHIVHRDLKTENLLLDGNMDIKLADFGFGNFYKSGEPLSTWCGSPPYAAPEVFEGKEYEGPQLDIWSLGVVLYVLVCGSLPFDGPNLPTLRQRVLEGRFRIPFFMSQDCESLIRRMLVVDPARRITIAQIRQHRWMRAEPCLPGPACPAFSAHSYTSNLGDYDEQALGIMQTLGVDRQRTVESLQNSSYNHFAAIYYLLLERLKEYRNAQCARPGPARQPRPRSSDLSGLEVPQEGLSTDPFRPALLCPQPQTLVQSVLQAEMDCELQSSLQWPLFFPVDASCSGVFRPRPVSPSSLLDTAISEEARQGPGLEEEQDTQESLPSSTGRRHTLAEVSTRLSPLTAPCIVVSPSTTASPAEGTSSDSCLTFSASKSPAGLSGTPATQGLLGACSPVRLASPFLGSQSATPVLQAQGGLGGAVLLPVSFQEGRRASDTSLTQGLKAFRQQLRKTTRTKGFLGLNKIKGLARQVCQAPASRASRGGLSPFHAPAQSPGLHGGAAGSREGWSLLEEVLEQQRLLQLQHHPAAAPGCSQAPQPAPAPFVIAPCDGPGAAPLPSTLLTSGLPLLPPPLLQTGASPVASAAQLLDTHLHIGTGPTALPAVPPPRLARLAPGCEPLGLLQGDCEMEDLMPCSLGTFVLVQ
T3 sequence (P49841 whole entry): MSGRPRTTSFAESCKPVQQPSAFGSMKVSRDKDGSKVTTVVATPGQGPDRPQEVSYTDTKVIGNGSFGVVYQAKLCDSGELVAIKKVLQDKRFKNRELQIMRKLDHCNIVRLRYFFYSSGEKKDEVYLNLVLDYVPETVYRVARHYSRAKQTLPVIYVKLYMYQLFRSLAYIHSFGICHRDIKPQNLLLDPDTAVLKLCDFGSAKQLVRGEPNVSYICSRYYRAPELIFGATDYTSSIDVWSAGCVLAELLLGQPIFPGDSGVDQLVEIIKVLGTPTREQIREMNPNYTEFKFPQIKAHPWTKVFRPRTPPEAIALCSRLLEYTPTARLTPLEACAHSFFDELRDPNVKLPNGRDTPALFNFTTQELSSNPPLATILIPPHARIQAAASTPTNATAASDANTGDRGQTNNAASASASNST
Chain of NEK7(h) (Q8TDX7 whole entry): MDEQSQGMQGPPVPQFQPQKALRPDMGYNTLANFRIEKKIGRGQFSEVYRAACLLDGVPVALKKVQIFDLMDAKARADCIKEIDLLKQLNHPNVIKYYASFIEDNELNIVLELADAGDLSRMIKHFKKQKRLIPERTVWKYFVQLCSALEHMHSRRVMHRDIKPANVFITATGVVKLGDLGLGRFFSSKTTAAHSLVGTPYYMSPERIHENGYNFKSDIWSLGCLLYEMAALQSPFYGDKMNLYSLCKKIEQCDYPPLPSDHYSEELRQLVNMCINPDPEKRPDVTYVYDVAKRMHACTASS
Chain of NEK6(h) (Q9HC98 whole entry): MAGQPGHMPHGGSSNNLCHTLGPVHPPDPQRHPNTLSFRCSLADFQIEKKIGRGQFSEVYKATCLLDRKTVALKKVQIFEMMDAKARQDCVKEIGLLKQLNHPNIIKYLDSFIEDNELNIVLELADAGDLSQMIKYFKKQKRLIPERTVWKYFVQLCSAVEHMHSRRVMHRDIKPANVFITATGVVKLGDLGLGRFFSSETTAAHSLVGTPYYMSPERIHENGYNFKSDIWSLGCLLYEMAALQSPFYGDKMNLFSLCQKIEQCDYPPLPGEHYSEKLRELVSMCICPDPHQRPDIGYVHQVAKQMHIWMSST
T10 sequence (P43403 whole entry): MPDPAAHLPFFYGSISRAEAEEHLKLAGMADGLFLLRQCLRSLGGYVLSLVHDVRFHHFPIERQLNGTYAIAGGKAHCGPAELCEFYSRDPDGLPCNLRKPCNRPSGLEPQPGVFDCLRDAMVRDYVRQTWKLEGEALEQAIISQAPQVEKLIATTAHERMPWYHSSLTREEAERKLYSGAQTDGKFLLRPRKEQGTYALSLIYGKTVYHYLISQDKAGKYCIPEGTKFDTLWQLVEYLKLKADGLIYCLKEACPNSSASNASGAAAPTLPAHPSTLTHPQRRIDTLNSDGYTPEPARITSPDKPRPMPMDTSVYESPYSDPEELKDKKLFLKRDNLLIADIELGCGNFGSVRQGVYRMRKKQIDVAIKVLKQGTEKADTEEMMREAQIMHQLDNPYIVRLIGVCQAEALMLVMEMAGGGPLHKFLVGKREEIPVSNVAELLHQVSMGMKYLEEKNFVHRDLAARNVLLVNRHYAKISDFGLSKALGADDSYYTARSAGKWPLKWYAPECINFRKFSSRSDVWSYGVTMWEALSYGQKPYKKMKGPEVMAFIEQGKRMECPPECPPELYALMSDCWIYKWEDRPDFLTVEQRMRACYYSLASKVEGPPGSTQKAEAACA
T6 sequence (Q9BZL6 whole entry): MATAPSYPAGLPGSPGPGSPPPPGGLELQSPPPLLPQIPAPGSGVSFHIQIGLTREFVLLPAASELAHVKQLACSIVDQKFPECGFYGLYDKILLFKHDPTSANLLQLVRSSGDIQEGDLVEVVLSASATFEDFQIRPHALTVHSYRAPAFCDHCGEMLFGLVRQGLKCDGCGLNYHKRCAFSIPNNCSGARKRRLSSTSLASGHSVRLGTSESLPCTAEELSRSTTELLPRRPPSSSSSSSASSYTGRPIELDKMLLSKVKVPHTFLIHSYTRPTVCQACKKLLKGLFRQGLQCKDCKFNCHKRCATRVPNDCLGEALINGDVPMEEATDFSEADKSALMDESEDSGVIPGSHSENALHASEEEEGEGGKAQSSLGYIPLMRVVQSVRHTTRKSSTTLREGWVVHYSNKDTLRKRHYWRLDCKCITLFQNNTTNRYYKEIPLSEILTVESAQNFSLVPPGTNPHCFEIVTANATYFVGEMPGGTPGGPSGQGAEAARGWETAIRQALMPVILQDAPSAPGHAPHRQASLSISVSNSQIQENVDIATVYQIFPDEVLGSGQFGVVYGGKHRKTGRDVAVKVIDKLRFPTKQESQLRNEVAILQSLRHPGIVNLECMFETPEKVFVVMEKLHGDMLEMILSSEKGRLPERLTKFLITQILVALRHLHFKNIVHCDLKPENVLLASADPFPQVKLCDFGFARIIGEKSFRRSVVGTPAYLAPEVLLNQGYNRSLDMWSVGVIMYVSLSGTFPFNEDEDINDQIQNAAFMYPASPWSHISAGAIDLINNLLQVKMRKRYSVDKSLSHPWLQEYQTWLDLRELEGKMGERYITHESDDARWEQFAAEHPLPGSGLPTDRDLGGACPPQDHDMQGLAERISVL
Chain of Fgr(h) (P09769 whole entry): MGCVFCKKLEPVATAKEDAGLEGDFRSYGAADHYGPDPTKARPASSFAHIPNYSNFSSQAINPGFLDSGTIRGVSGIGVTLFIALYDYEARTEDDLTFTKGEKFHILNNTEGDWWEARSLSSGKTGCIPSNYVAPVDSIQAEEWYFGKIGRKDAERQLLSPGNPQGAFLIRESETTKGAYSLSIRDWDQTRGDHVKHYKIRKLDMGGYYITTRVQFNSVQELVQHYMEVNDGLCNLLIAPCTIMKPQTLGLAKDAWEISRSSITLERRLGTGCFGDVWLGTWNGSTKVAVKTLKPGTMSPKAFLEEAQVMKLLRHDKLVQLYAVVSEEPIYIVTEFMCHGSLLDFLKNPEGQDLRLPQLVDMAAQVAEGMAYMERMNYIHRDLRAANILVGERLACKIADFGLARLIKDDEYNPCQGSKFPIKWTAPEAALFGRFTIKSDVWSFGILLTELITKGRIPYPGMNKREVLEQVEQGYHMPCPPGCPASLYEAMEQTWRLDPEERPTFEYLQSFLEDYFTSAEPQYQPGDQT
T9 sequence (O43318 whole entry): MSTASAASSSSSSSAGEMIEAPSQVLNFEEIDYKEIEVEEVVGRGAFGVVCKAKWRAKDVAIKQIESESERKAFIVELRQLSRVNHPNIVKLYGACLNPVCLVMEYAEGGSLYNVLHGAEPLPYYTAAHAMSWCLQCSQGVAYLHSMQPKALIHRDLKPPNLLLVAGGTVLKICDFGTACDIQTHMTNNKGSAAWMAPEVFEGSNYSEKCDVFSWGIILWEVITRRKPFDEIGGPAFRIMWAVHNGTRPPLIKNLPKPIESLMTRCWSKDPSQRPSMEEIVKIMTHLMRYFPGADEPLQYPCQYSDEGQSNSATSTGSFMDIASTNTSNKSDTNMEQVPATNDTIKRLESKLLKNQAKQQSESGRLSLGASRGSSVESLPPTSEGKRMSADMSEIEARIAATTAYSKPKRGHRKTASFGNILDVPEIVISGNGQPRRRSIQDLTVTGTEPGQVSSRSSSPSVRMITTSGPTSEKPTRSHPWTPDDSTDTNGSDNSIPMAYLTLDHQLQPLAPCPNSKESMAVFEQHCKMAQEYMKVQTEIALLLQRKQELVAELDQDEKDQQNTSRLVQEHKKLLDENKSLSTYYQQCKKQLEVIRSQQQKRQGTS

`Oc1ccc(/C=C/c2cc(O)cc(O)c2)cc1` [Res, resveratrol] showed a remaining activity at 20 µM (ALK(h)) of 39%, a remaining activity at 20 µM (CHK1(h)) of 95 ± 2% and a remaining activity at 20 µM (Fgr(h)) of 78 ± 5%. The remaining activity at 20 µM (Fms(h)) was 61 ± 2%, the remaining activity at 20 µM (GSK3ß(h)) was 92% and the remaining activity at 20 µM (IR(h)) was 71 ± 5%. It also gave a remaining activity at 20 µM (IRAK1(h)) of 97%, a remaining activity at 20 µM (Met(h)) of 114 ± 5% and a remaining activity at 20 µM (NEK2(h)) of 102 ± 4%. For the same compound, the remaining activity at 20 µM (NEK6(h)) was 140 ± 16%, the remaining activity at 20 µM (NEK7(h)) was 116 ± 2% and the remaining activity at 20 µM (PAK4(h)) was 103 ± 4%. For the same compound, the remaining activity at 20 µM (PKBγ(h)) was 89 ± 4%, the remaining activity at 20 µM (PKD2(h)) was 88 ± 5% and the remaining activity at 20 µM (SAPK2b(h)) was 100 ± 1%. The remaining activity at 20 µM (SIK(h)) was 76 ± 1%, the remaining activity at 20 µM (TAK1(h)) was 105 ± 3% and the remaining activity at 20 µM (ZAP-70(h)) was 141 ± 2%.
